Test results reported in patent US20240293337A1, “USE OF DOXERCALCIFEROL TO TREAT AND/OR PREVENT UTERINE FIBROIDS OR POLYCYSTIC OVARY SYNDROME” (priority 2023, published 2024).

Columns and labels:
H295R cells = experiment: Androgen producing gene expression in H295R cells (qPCR); assay type: cell-based, human; details: 24 hours
Method: H295R cells are subcultured in T75 flasks for 24 hours. Cells are then treated for 24 hours with serum free basal media as a control or doxercalciferol at 1 nM, 10 nM, or 100 nM diluted in basal media (serum-free) at a 1:1 ratio. After the incubation period, cells are imaged and analyzed for morphology and cell count. Cells are then collected for analysis of steroidogenesis-related gene expression. Cell culture media are collected and used for testosterone quantification using ELISA based Testosterone Parameter Assay Kit (R&D system) per the manufacturer's protocol. The testosterone level is quantified using a multimode microplate reader system, Varioskan LUX Multimode Microplate Reader (Thermo Fisher).
RNA is extracted from H295R cells treated with doxercalciferol. RNA extraction is done using TRIzol (Invitrogen, USA) according to the manufacturer's instructions. The concentration and purity of the extracted RNA are checked using a NanoDrop spectrometer (Thermo Scientific, MA, USA). For qPCR of steroidogenesis related genes in H295R cells 1 μg of total RNA is reverse transcribed using RNA to cDNA EcoDry™ Premix (Double Primed) (Takara Bio USA Inc., CA, USA). The reaction mixture is incubated for 1 hour at 42° C.; incubation is stopped at 70° C. for 10 min. qPCR is performed using the CFX96 PCR instrument and SYBR Green Supermix (Bio-Rad, Hercules, CA, USA) with specific primers (RT^2 Profiler PCR Array for Human Adipogenesis, PAHS-049ZA, QIAGEN) to the target genes in a 20 μL final reaction volume. The delta-delta threshold cycle (ΔΔCt) method is used to calculate the fold change expression in mRNA level in the samples.

[1] = tested on: Human MSC derived adipocytes; experiment: MSC derived adipocyte differentiation, 14 days, morphology and oil red-O staining; assay type: cell-based; details: 100 nM
Method: Human mesenchymal stem cells (MSC) are used as an in vitro cell culture model of adipocyte precursors to assess adipocyte differentiation. MSC cells are purchased from (Lonza). The cells are cultured in the DMEM/F12 media containing 10% FBS. At approximately 80% confluence, the cells are trypsinized using TrypLE select enzyme (Gibco, MA) and are serially expanded. At the end of the culture expansion, MSCs are collected and centrifuged at 300×g for 5 minutes. Human MSCs are treated with doxercalciferol and are cultured in adipocyte induction medium for 14 days. Mesenchymal Adipogenesis Kit (Sigma) and manufacturer's induction protocol are used for adipocyte induction. Imaging and morphology analysis is performed on days 1, 7, 10, and 14. On day 14 when adipocyte differentiation is completed, the cells undergo oil red-O staining and are imaged for further morphology analysis.

[2] = Serum chemistry in PCOS mice; assay type: in vivo, C57BL/6 mice; details: PCOS mice treated with doxercalciferol, n 7
Method: Five weeks after placebo or LTZ pellet implantation, mice undergo intraperitoneal injection of doxercalciferol (300 ng/kg) or saline 3 times per week for 6 weeks. Six weeks after doxercalciferol treatment, the mice are anesthetized and ovary, uterus, gonadal white fat, kidney, and liver tissue are collected. Each of these tissues are fixed in 4% paraformaldehyde for further histological analysis.
Blood is collected from all groups by cardiac exsanguination under isoflurane anesthesia: serum is separated and stored at −80° C. Serum chemistry analysis including BUN, ALT, ALP, AST, TBIL, calcium, TP, ALB, and NA+ is performed in University of Chicago Animal Resource Center (UC ARC) with VETSCAN® VS2 Chemistry Analyzer (Zoetis).

[3] = tested on: patient derived xenograft (PDX) mouse model of uterine fibroids (UF); experiment: Differentially expressed gene (DEG) analysis by RNA sequencing in PDX UFs; assay type: in vivo, NOD/SCID mice; details: UFs treated with doxercalciferol compared to control
Method: After xenograft mice undergo intraperitoneal injection of doxercalciferol (300 ng/kg, 3 times per week) or saline for 6 weeks. Body weight is monitored weekly during doxercalciferol treatment. Six weeks after doxercalciferol treatment insulin resistance is assessed using GTT and then mice are anesthetized and blood is collected to measure liver enzyme and AMH levels, ovary tissue is removed for histological analysis, total RNA is extracted for sequencing, and tumor size is measured with a digital caliper.
Total RNA is extracted from PDX mice after doxercalciferol treatment. EdgeR is used to identify DEGs with p-values of (p)<0.01). GO and KEGG enrichment analysis are performed to determine the implication of the DEGs at the biologically functional level.

## C=C1/C(=C\C=C2/CCC[C@]3(C)[C@@H]([C@H](C)/C=C/[C@H](C)C(C)C)CC[C@@H]23)C[C@@H](O)C[C@@H]1O [doxercalciferol]
H295R cells; 1 nM
  CYP11A1 gene expression: not significantly changed
  CYP17A1 gene expression: significantly increased
H295R cells; 10 nM
  CYP11A1 gene expression: significantly increased
  CYP17A1 gene expression: not significantly changed
H295R cells; 100 nM
  CYP11A1 gene expression: significantly decreased
  CYP17A1 gene expression: significantly decreased
[1]; 1 nM, 10 nM, day 14
  Oil red-O staining, presence of adipocytes: presence of adipocytes in all treatment groups except the 100 nM group
[1]; 14 days
  cell morphology: most cells dead
[2]
  ALB, Mean: 3.9 g/dL
  ALP, Mean: 76 U/L
  ALT, Mean: 66 U/L
  AST, Mean: 144 U/L
  BUN, Mean: 22 mg/dL
  CA, Mean: 12.9 mg/dL
  NA+, Mean: 149 mmol/L
  TBIL, Mean: 0.4 mg/dL
  TP, Mean: 4.7 g/dL
[3]
  ADRA1B fold change (FC): −1.81
  ARGI fold change (FC): −1.42
  DUSP1 fold change [FC]: 1.05
  IL24 fold change (FC): 1.55
[3]; RNA sequencing
  number of DEGs: 410
  number of down-regulated DEGs: 252
  number of up-regulated DEGs: 158
